# Measurements taken from paper PMC9738062, “Selectively Halogenated Flavonolignans—Preparation and Antibacterial Activity” (International Journal of Molecular Sciences, 2022).
# Entries after “also recorded” stand apart in the source; their conditions may differ.
# Columns and labels:
# [1] = test system: Vibrio campbellii BAA 1119 (AI-2); assay: microbe, parasite or virus in culture; assay type: cell-based; details: for EC50: Vibrio campbellii, BAA1119, 16 h, read-out: EC50 (concentration that halved the communication); for SI (selectivity index): ratio IC50 (viability) / EC50 (communication), BAA 1119
# Outline: (§1)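 Mutant V. campbellii strains responding only to AI-1 (BAA-1118) or AI-2 (BAA-1119), seeded at 5 × 10^5 CFU/mL in Autoinducer Bioassay medium (potassium phosphate pH 7.0); compounds at final 0.2–200 µM.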
# [2] = test system: Vibrio campbellii BAA 1118 (AI-1); assay: microbe, parasite or virus in culture; assay type: cell-based; details: for EC50: Vibrio campbellii, BAA1118, 16 h, read-out: EC50 (concentration that halved the communication); for SI (selectivity index): ratio IC50 (viability) / EC50 (communication), BAA 1118
# Outline: as §1
# [3] = ABTS cation radical scavenging; details: vitamin C equivalent antioxidant capacity
# Outline: (§2)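 ABTS and DPPH radical scavenging gauged antiradical activity. Reducing capacity was measured as reduction of Folin–Ciocalteu reagent and of ferric ions (FRAP).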
# [4] = test system: P. aeruginosa (CCM, 3955); assay: Inhibition of biofilm formation (surface colonization); assay type: cell-based; details: Pseudomonas aeruginosa; highest tested concentration 100 µM
# Method: Biofilm formation is a fully organized, multistep process in which bacteria are constantly communicating with each other.
# The activity of derivatives on biofilms was tested with S. aureus (ATCC, 25923) and P. aeruginosa (CCM, 3955), according to the previously described method. The highest tested concentration of derivatives was 100 µM. The activity was evaluated using an IC50 comparison between the parent compound and its derivative.
# [5] = Ferric reducing antioxidant power (FRAP); details: Fe2+ equivalents
# Outline: as §2
# [6] = test system: Vibrio campbellii BAA 1118 (AI-1); assay: Viability of the quorum-sensing reporter culture (resazurin assay), AI-1 strain; assay type: cell-based; details: BAA1118, V. campbellii BAA 1118, resazurin assay, read-out: IC50 (concentration that halved the viability)
# Outline: as §1
# DPPH radical scavenging = details: 1,1-diphenyl-2-picrylhydrazyl radical scavenging
# Outline: as §2
# [7] = test system: Vibrio campbellii BAA 1119 (AI-2); assay: Viability of the quorum-sensing reporter culture (resazurin assay), AI-2 strain; assay type: cell-based; details: BAA1119, V. campbellii BAA 1119, resazurin assay, read-out: IC50 (concentration that halved the viability)
# Outline: as §1
# [8] = test system: multidrug-resistant S. aureus; assay: Sensitization of antibiotic-resistant bacteria (compound plus breakpoint antibiotic concentration); assay type: cell-based, Staphylococcus aureus; details: for Effect on viability in combination with chloramphenicol: chloramphenicol 8 mg/L; for Effect on viability in combination with chloramphenicol / Effect on viability in combination with gentamicin: flavonoid 40 µM, 24 h; for Effect on viability in combination with gentamicin: gentamicin 1 mg/L
# Outline: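 A multidrug-resistant clinical isolate of S. aureus from the General University Hospital in Prague was grown in Mueller–Hinton broth with flavonoid derivatives combined with a EUCAST breakpoint concentration of antibiotic. MIC was determined according to ISO 20776-1: 2020, and viability was read as absorbance at A590 nm after 24 h at 37 °C and 150 rpm.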
Compound,EC50 [1],EC50 [2],ABTS [CEAC] [3],IC50 [4],FRAP [Fe2+eq] [5],IC50 [6],IC50 (DPPH radical scavenging),IC50 [7],Effect on viability in combination with chloramphenicol [8],Effect on viability in combination with gentamicin [8],SI (selectivity index) [1],SI (selectivity index) [2],"Gentamicin-resistant phenotype of S. aureus (result in words) ([8]; gentamicin breakpoint concentration, compound 40 µM)"
"COc1cc([C@@H]2Oc3c(O)cc([C@H]4Oc5cc(O)cc(O)c5C(=O)[C@@H]4O)cc3[C@H]2CO)ccc1O [compound 5, silychristin A, reference compound]",> 200 µM,> 200 µM,1.73 ± 0.02 CEAC,73 µM,0.25 ± 0.02 Fe2+eq,> 200 µM,47.2 µM,> 200 µM,-,-,,,
"COc1cc([C@@H]2Oc3cc([C@H]4Oc5cc(O)cc(O)c5C(=O)[C@@H]4O)ccc3O[C@H]2CO)ccc1O [3b, silybin B, reference compound]",22.3 ± 0.5 µM,121.5 ± 0.6 µM,0.55 ± 0.05 CEAC,105 µM,0.078 ± 0.004 Fe2+eq,116.6 ± 0.9 µM,259 µM,152 ± 2.4 µM,-,-,6.8 ± 0.2,0.96 ± 0.01,
"O=C1c2c(cc(O)c(Br)c2O)O[C@H](c2ccc(O)c(O)c2)[C@H]1O [compound 7, 6-Bromotaxifolin]",11.9 ± 0.5 µM,38.9 ± 1.6 µM,0.97 ± 0.03 CEAC,,1.33 ± 0.03 Fe2+eq,59 ± 0.1 µM,7.77 µM,19.7 ± 1 µM,-,,1.7 ± 0.2,1.5 ± 0.1,
"COc1cc([C@@H]2Oc3c(O)cc(-c4oc5c(Br)c(O)cc(O)c5c(=O)c4O)cc3[C@H]2CO)ccc1O [compound 18, 8-Bromo-2,3-dehydrosilychristin A]",10.5 ± 0.2 µM,29.4 ± 0.7 µM,1.41 CEAC,,0.90 Fe2+eq,80.1 ± 1.7 µM,11.1 ± 0.6 µM,23 ± 0.2 µM,-,-,2.2 ± 0.1,2.7 ± 0.1,
"COc1cc([C@H]2Oc3cc([C@H]4Oc5c(Br)c(O)c(Br)c(O)c5C(=O)[C@@H]4O)ccc3O[C@@H]2CO)cc(Br)c1O [compound 21, 6,8,21-tribromosilybin A]",30.7 ± 1.6 µM,> 200 µM,0.12 ± 0.02 CEAC,,0.079 ± 0.002 Fe2+eq,> 200 µM,375 µM,> 200 µM,-,reversion of resistance,≥6.5 ± 0.3,,reversed the resistant phenotype to a sensitive one; also recorded: revert the resistant phenotype into a sensitive one
"O=c1c(O)c(-c2ccc(O)c(O)c2)oc2c(Br)c(O)c(Br)c(O)c12 [compound 10, 6,8-dibromoquercetin]",0.7 ± 0.02 µM,7.3 ± 0.4 µM,2.63 ± 0.19 CEAC,,3.31 ± 0.14 Fe2+eq,13.8 ± 0.5 µM,3.59 µM,3.5 ± 0.1 µM,-,-,5.0 ± 0.3,1.9 ± 0.2,
"COc1cc([C@@H]2Oc3cc([C@H]4Oc5cc(O)c(Br)c(O)c5C(=O)[C@@H]4O)ccc3O[C@H]2CO)ccc1O [compound 13, 6-Bromosilybin B]",26.1 ± 1.3 µM,14.5 ± 0.5 µM,0.75 ± 0.02 CEAC,,0.063 ± 0.001 Fe2+eq,16.1 ± 0.1 µM,354 µM,52.7 ± 0.6 µM,-,,2.0 ± 0.1,1.11 ± 0.04,
"COc1cc([C@H]2Oc3cc([C@H]4Oc5cc(O)cc(O)c5C(=O)[C@@H]4O)ccc3O[C@@H]2CO)ccc1O [3a, silybin A, reference compound]",17.1 ± 0.5 µM,97.1 ± 1 µM,0.50 ± 0.03 CEAC,77 µM,0.071 ± 0.003 Fe2+eq,131 ± 3.7 µM,322 µM,120 ± 3.1 µM,-,-,7.0 ± 0.4,1.3 ± 0.1,
